The first assay deals with T1, Syk kinase (Homo sapiens, UniProt P43405).
T1 construct: purchased
The experiment in a line: Syk kinase inhibition, Caliper LabChip off-chip mobility-shift kinase assay. It is filed as biochemical. To be noted: Caliper LabChip assay; read-out: Syk Enzyme IC50. The method in brief:
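Purified Syk pre-incubated 15 min with compound in 100 mM HEPES pH 7.5, 1 mM DTT, 10 mM MgCl2 or MnCl2, 0.002% Brij-35, then 1.5 μM fluorescein peptide and ATP at apparent KM added; 1–1.5 h at room temperature, 4% DMSO, EDTA stop. Microfluidic mobility-shift product/substrate conversion gave % inhibition; IC50 from 12-point series (10–0.00003 μM) by 4-parameter fit.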
With `CC(C)(C)Nc1nc(-c2cnc(N)nc2)cc2ccn(CC3CCCO3)c(=O)c12` (stereo not drawn) [compound 918], the IC50 – broadly, the midpoint of a concentration-inhibition curve – worked out at 35 nM.

As to `O=c1c2c(NC3CCCC3)nc(Nc3cnccn3)cc2ccn1CC1(CO)COC1` [compound 763], the IC50 is 12 nM.

Consider `CC(C)(C)Nc1nc(Nc2cc(C(=O)NCCc3c[nH]cn3)ccn2)cc2ccn(CCO)c(=O)c12` [compound 687], for which the IC50 turned out to be 248 nM. Regarding `CC(C)(C)Nc1nc(Nc2cc(OCCO)ncn2)cc2ccn(C[C@H](O)CO)c(=O)c12` [compound 642], the IC50 stood at 29 nM. Regarding `[2H]C([2H])([2H])n1ccc2cc(Nc3cc(C)ccn3)nc(NC(C)(C)CO)c2c1=O` [compound 1047], the IC50 was found to be 77.2 nM. In the case of `CC(C)(C)Nc1nc(Nc2cc(-c3cccnc3)ccn2)cc2ccn(CCO)c(=O)c12` [compound 828], the IC50 is 72 nM. Consider `CC(C)(C)Nc1nc(Nc2cc(C3(CO)CC3)ccn2)cc2ccn(CCO)c(=O)c12` [compound 860], for which the IC50 was 28 nM. As for `CC(C)(C)Nc1nc(Nc2cc(C(C)(C)O)ncn2)cc2ccn(C(CO)CO)c(=O)c12` [compound 741], the IC50 was 22.2 nM. Regarding `CCn1ccc2cc(Nc3cc(C)ccn3)nc(Nc3ccc(C(=O)NCCO)cc3)c2c1=O` [compound 834], the IC50 was 126 nM.

For the molecule `CC(C)(C)Nc1nc(Nc2cc(-c3cnn(CC(N)=O)c3)ccn2)cc2ccn(CCO)c(=O)c12` [compound 849], the IC50 stood at 102 nM. Regarding `O=c1c2c(N[C@H]3CC[C@@H](O)CC3)nc(Nc3cnccn3)cc2ccn1CCF` [compound 999], the IC50 came out at 10 nM. Consider `Cc1ccnc(Nc2cc3ccn(CCO)c(=O)c3c(NCC(C)(C)C)n2)c1` [compound 814], for which the IC50 is 390 nM. Turning to `Nc1nc(Nc2cnccn2)cc2ccn(CCO)c(=O)c12` [compound 811], the IC50 is 651 nM. Turning to `CCn1ccc2cc(Nc3cnccn3)nc(NC(C)(C)CO)c2c1=O` [compound 895], the IC50 is 27 nM. Consider `CC(O)c1ccnc(Nc2cc3ccn(CCO)c(=O)c3c(NC3(C)CCC3)n2)c1` (stereo not drawn) [compound 718], for which the IC50 was 11 nM. For the molecule `N#CCn1ccc2cc(-c3cnc(N)nc3)nc(NC3CCCC3)c2c1=O` [compound 756], the IC50 worked out at 117 nM. Regarding `CC(C)(C)Nc1nc(Nc2cc(-c3ccnc(N)n3)ccn2)cc2ccn(CCO)c(=O)c12` [compound 691], the IC50 is 59 nM. The same measure, in the same setting: the figure for `CC(C)(O)Cc1ccnc(Nc2cc3ccn(CCO)c(=O)c3c(NC(C)(C)C)n2)c1` [compound 880] is 74 nM; for `COCC(O)Cn1ccc2cc(Nc3cnccn3)nc(NC(C)(C)C)c2c1=O` (stereo not drawn) [compound 677] it is 12 nM. The same measure, in the same setting: the figure for `CC(O)c1ccnc(Nc2cc3ccn(CCO)c(=O)c3c(NC(C)(C)C)n2)c1` (stereo not drawn) [compound 700] is 12 nM; for `CCn1ccc2cc(-c3cnc(N)nc3)nc(N[C@H]3C[C@@H](CO)C3)c2c1=O` [compound 748] it is 7 nM.

Staying with this assay, now noted: read-out: Syk Enzyme IC50.
On to `CCc1ccnc(Nc2cc3cc[nH]c(=O)c3c(Nc3ccc(CCN4CCN(CC)CC4)cc3)n2)c1` [compound 546], for which the IC50 stood at 88 nM.

In the case of `CCn1ccc2cc(Nc3cc(C)ccn3)nc(NC(C)C)c2c1=O` [compound 191], the IC50 came to 187 nM. The same measure, in the same setting: the figure for `Cc1nc(N)ncc1-c1cc2cc[nH]c(=O)c2c(Nc2ccc([C@H]3CC[C@H](N4CCOCC4)CC3)cc2)n1` [compound 101] is 668 nM; for `Cc1cc(Nc2nc(-c3cncc(NC4CC4)n3)cc3cc[nH]c(=O)c23)ccc1C1CCN(CCC#N)CC1` [compound 68] it is 89 nM.

As for `CO/N=C(\C)c1cc2cc[nH]c(=O)c2c(Nc2ccc(C3CCNCC3)c(C)c2)n1` [compound 235], the IC50 was 102 nM. With `Cc1ccnc(Nc2cc3cc[nH]c(=O)c3c(N[C@H]3CCOC3)n2)c1` [compound 302], the IC50 is 83 nM. On the same count and under the same terms, the figure for `Cn1ccc2cc(Nc3cc(Cl)ccn3)nc(N[C@H]3CC[C@H](O)CC3)c2c1=O` [compound 385] is 28 nM; for `Cc1ccnc(Nc2cc3cc[nH]c(=O)c3c(NC3CC3)n2)c1` [compound 535] it is 206 nM; for `COc1cncc(-c2cc3cc[nH]c(=O)c3c(Nc3ccc(C4CCN(CC(=O)N5CCCC5)CC4)c(C)c3)n2)n1` [compound 156] it is 41 nM. For `CCn1ccc2cc(Nc3cnccn3)nc(N[C@H]3CC[C@@H](O)CC3)c2c1=O` [compound 356], the IC50 stood at 10 nM. As to `COc1cncc(-c2cc3cc[nH]c(=O)c3c(Nc3ccc(C4CCN(C(=O)C5(C)COC5)CC4)c(C)c3)n2)n1` [compound 75], the IC50 stood at 53 nM. On the same count and under the same terms, for `CCN1CCN(CCc2ccc(Nc3nc(Nc4ccc(C(=O)O)cn4)cc4cc[nH]c(=O)c34)cc2)CC1` [compound 581] the value was 16 nM. On to `Cc1ccnc(Nc2cc3cc[nH]c(=O)c3c(NC(C)CC(C)C)n2)c1` (stereo not drawn) [compound 270], for which the IC50 stood at 6950 nM. Take `COCCN1CCN(c2n[nH]c3cc(Nc4nc(-c5ccc(C)nc5)cc5cc[nH]c(=O)c45)ccc23)CC1` [compound 215]: the IC50 is 67 nM. Consider `Cc1ccnc(Nc2cc3cc[nH]c(=O)c3c(NC(C)C)n2)c1` [compound 490], for which the IC50 was 32 nM. For `C[C@@H]1CN(c2ccc(Nc3nc(/C=C/C(=O)O)cc4cc[nH]c(=O)c34)cn2)CCO1` [compound 241], the IC50 was 208 nM. Regarding `COc1cncc(-c2cc3cc[nH]c(=O)c3c(Nc3ccc(C4CCN(C5CS(=O)(=O)C5)CC4)c(C)c3)n2)n1` [compound 42], the IC50 came to 26 nM. With `COCC(C)Nc1nc(-c2cnc(N)nc2)cc2cc[nH]c(=O)c12` (stereo not drawn) [compound 180], the IC50 came to 115 nM. Take `CCN1CCN(Cc2n[nH]c3cc(Nc4nc(-c5cncnc5)cc5cc[nH]c(=O)c45)ccc23)CC1` [compound 202]: the concentration for half-maximal inhibition (IC50) came to 27 nM. Consider `Nc1ncc(-c2cc3cc[nH]c(=O)c3c(NC3CCC3)n2)cn1` [compound 453], for which the half-maximal inhibitory concentration (IC50) came to 162 nM. Consider `CCCNC(=O)c1ccc(Nc2nc(Nc3cc(C)ccn3)cc3ccn(C)c(=O)c23)cc1` [compound 363], for which the IC50 was 551 nM. `CN(C)Cc1n[nH]c2cc(Nc3nc(-c4cncc(C(=O)N5CCOCC5)c4)cc4cc[nH]c(=O)c34)ccc12` [compound 205]: the IC50 worked out at 104 nM.

As for `COCCN1CCC(c2ccc(Nc3nc(-c4ccc(C)nc4)cc4cc[nH]c(=O)c34)cc2C)CC1` [compound 47], the IC50 was determined as 12 nM.

For `COc1nc(-c2cc3cc[nH]c(=O)c3c(Nc3ccc(C4CCN(CCC#N)CC4)c(C)c3)n2)cnc1N` [compound 169], the IC50 was 29 nM. `CC(C)Nc1nc(Nc2ccc(C#N)cn2)cc2cc[nH]c(=O)c12` [compound 570]: the IC50 was 377 nM. Turning to `C=C(C)c1cc2cc[nH]c(=O)c2c(Nc2ccc(C3CCN(C4CC4)CC3)c(C)c2)n1` [compound 229], the IC50 is 743 nM. In the case of `CC(C)Nc1nc(Nc2ccc(C(N)=O)cn2)cc2cc[nH]c(=O)c12` [compound 540], the IC50 turned out to be 206 nM. For `CNC(=O)C(C)(C)c1ccc(Nc2nc(-c3cnc4nccn4c3)cc3cc[nH]c(=O)c23)cc1` [compound 29], the IC50 is 30 nM. For `Cc1cc(Nc2nc(Nc3ccc(C(N)=O)cn3)cc3cc[nH]c(=O)c23)ccc1C1CCN(C2CC2)CC1` [compound 251], the IC50 stood at 58 nM.

Turning to `COc1cncc(-c2cc3c(F)c[nH]c(=O)c3c(Nc3ccc(N4CCOCC4)cc3)n2)n1` [compound 432], the IC50 amounted to 623 nM.

(Values after patent US20110053897A1 (IRM LLC, priority 2009, published 2011).)
